# Laboratory results as given in ChEMBL document CHEMBL5038675, “Selective A3 Adenosine Receptor Antagonist Radioligand for Human and Rodent Species” (ACS Med Chem Lett, 2022).
# pKd, pKi: −log10 of the molar value.
# Tests used:
# Adenosine receptor A3 [1] = molecular target: T1, Adenosine receptor A3 (Rattus norvegicus, UniProt P28647); assay: Binding affinity to rat adenosine A3 receptor measured by radioligand binding assay
# T1 sequence (P28647 whole entry): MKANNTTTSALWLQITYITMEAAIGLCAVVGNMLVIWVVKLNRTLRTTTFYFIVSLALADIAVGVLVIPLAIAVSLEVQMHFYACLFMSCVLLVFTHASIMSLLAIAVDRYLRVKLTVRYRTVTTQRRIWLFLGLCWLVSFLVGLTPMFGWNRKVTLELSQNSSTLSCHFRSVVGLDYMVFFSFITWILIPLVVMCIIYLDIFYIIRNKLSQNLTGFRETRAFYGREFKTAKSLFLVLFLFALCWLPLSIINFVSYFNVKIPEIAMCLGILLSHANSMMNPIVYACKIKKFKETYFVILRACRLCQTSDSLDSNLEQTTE
# Adenosine receptor A3 [2] = molecular target: T2, Adenosine receptor A3 (Mus musculus, UniProt Q61618); assay: Binding affinity to mouse adenosine A3 receptor measured by radioligand binding assay
# T2 sequence (Q61618 whole entry): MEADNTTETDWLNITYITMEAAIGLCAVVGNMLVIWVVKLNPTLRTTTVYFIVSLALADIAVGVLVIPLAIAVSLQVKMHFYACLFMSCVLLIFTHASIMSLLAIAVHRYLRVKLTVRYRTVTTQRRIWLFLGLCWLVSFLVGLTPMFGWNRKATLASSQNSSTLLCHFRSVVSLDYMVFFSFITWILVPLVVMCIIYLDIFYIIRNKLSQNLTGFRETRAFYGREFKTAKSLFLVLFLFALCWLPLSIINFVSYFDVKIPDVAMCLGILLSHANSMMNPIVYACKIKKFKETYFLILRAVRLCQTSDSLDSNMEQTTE
# Adenosine receptor A1 [3] = molecular target: T3, Adenosine receptor A1 (Homo sapiens, UniProt P30542); assay: Displacement of [3H] DPCPX from human adenosine A1 receptor expressed in HEK293 cells incubated for 60 mins by radioligand binding assay; assay type: cell-based
# T3 sequence (P30542 whole entry): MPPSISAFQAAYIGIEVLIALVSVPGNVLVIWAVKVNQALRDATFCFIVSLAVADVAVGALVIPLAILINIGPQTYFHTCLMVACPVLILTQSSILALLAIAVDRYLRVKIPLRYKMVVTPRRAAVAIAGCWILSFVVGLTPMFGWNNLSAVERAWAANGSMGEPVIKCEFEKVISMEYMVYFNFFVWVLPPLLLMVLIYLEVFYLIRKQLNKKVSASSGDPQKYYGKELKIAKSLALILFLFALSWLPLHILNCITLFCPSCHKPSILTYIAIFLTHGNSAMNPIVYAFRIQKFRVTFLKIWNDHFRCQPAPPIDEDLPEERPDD
# Adenosine receptor A2a [4] = molecular target: T4, Adenosine receptor A2a (Homo sapiens, UniProt P29274); assay: Displacement of [3H] ZM241385 from human adenosine A2A receptor expressed in HEK293 cells incubated for 60 mins by radioligand binding assay; assay type: cell-based
# Adenosine receptor A3 [5] = molecular target: T5, Adenosine receptor A3 (Homo sapiens, UniProt P0DMS8); assay type: cell-based, HEK293
# T5 sequence (P0DMS8 whole entry): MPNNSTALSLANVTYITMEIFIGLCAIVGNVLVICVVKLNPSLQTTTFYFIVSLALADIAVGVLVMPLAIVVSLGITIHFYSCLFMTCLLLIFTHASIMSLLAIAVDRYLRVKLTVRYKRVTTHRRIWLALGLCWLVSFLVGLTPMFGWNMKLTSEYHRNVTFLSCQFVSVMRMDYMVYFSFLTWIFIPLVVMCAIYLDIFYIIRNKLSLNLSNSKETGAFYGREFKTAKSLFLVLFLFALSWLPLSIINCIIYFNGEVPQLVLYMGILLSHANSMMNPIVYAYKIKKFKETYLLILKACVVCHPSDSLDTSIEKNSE
# Adenosine receptor A3 [6] = molecular target: T2, Adenosine receptor A3; assay type: cell-based, HEK293
# Adenosine receptor A2a [7] = molecular target: T4, Adenosine receptor A2a; assay: Displacement of [3H] ZM241385 from human adenosine A2A receptor expressed in HEK293 cells at 10 uM incubated for 60 mins by radioligand binding assay; assay type: cell-based
# Adenosine receptor A1 [8] = molecular target: T6, Adenosine receptor A1 (Mus musculus, UniProt Q60612); assay: Displacement of [3H] DPCPX from mouse adenosine A1 receptor expressed in HEK293 cells incubated for 60 mins by radioligand binding assay; assay type: cell-based
# T6 sequence (Q60612 whole entry): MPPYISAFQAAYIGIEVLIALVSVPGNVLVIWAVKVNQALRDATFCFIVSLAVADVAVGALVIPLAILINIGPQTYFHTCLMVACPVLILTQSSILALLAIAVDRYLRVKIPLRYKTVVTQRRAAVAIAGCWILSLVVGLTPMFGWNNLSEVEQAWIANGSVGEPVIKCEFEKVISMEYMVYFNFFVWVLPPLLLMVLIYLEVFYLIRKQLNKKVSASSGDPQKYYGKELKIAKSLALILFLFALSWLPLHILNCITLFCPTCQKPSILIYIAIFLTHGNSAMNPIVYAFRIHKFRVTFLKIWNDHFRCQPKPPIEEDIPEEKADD
# [9] = molecular target: Adenosine receptor A2a (Mus musculus) (UniProt Q60613); assay: Displacement of [3H] ZM241385 from mouse adenosine A2A receptor expressed in HEK293 cells at 10 uM incubated for 60 mins by radioligand binding assay; assay type: cell-based
# Sequence of Adenosine receptor A2a (Mus musculus) (Q60613 whole entry): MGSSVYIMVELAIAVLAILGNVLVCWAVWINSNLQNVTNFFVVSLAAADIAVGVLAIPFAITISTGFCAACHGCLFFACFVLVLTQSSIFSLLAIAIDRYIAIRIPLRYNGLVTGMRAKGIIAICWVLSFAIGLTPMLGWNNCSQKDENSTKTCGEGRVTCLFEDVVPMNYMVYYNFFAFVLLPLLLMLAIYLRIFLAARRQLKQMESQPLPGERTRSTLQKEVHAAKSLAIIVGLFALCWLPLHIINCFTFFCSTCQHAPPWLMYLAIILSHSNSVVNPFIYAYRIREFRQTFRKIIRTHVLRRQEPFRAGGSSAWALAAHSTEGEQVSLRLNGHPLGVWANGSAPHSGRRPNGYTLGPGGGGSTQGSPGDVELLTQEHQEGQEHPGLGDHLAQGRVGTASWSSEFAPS
# T4 sequence (P29274 whole entry): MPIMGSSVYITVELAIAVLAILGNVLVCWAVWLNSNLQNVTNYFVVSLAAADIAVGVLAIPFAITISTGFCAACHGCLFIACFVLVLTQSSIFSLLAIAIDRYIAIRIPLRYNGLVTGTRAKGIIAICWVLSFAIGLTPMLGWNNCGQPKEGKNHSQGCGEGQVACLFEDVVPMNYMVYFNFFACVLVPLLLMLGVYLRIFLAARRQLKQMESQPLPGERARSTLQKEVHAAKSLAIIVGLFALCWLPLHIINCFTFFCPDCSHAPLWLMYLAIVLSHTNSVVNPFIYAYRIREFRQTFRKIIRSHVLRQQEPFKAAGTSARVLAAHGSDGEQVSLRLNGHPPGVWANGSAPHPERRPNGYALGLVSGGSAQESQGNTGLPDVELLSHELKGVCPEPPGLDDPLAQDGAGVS
pKi (Adenosine receptor A3 [1]),pKi (Adenosine receptor A3 [2]),pKi (Adenosine receptor A1 [3]),pKi (Adenosine receptor A3 [5]),pKi (Adenosine receptor A3 [6]),inhibition (Adenosine receptor A2a [7]) [%],SMILES,other results
< 5.00,5.20,–,–,–,–,CC[C@@H]1CN2C(=O)N(C)c3nc(-c4ccccc4)[nH]c3C2=N1,–
–,–,7.10,7.16,–,–,Cc1cc(F)cc(-c2nc(NC(=O)c3cccnc3)sc2-c2ccncc2)c1,pKi (Adenosine receptor A2a [4]): 5.45
< 5.00,< 5.00,–,–,–,–,CCCn1cc2c(nc(NC(=O)Nc3ccc(OC)cc3)n3nc(-c4ccco4)nc23)n1,–
–,–,5.80,7.72,6.92,15,COC(=O)/C=C/c1cc(C)cc(-c2nc(NC(=O)c3cccnc3)sc2-c2ccncc2)c1,–
–,–,5.84,8.20,7.65,-7.3,Cc1cc(Br)cc(-c2nc(NC(=O)c3cccnc3)sc2-c2ccncc2)c1,pKi (Adenosine receptor A1 [8]): 6.60; inhibition [9]: 29%
–,–,–,–,–,–,CNC(=O)[C@@]12C[C@@H]1[C@@H](n1cnc3c(NCc4cccc(I)c4)nc(Cl)nc31)[C@H](O)[C@@H]2O,pKd (Adenosine receptor A3 [1]): 9.77
